In patent US20250177351A1, “ISOINDOLINE COMPOSITIONS AND METHODS FOR TREATING NEURODEGENERATIVE DISEASE” (Cognition Therapeutics, Inc., priority 2022, published 2025):

Assays:
[1] = test system: DIV21 hippocampal/cortical cultures with Aβ oligomers; experiment: Neurogranin expression study in vitro; format: cell-based; conditions: Aβ42 oligomers 500 nM, 1 hr, followed by CT1812 4.8 nM, 24 hr
Method: Neurons were fixed in 3.75% formaldehyde and stained with full-length neurogranin (Abcam catalogue #ab23570, used in combination with novel Ng7 to detect full length neurogranin inAlzheimer's disease patient brain IP; Kvartsberg et al. 2015 Blennow lab), MAP2 (Millipore), and 4G8 (Biolegend) antibodies. Imaging was performed on Cellomics VX automated microscope with a 20×, 0.75 NA objective and analyzed using a compartmental analysis algorithm to measure staining in the nucleus versus cytoplasm.

[2] = Phase 1 MAD study: CT1812 concentration in CSF; format: in vivo, human; conditions: humans, from CSF levels
Source text: CT1812 was quantitated in CSF using a validated LC-MS/MS method.

[3] = Phase 1 SAD study: safety assessments; format: in vivo, human
Method: Part A was a single ascending dose cohort study in which healthy, young subjects (less than 65 years old) received one dose of study drug in the morning after an overnight fast. Cohort dosing started at 10 mg and increased to 30 mg, 90 mg, 180 mg, 450 mg, and 1120 mg in subsequent cohorts. Six drug-treated and two placebo-treated subjects were randomized in each cohort. A seventh cohort of six subjects each received a single 90 mg dose of drug 30 min. after a meal. Following completion of all safety assessments and blood draws for PK analyses, subjects were discharged on Day 3.
(§1) Safety variables, including incidence of adverse events (AEs), vital signs, clinical laboratory findings, 12-lead electrocardiographs (ECGs), physical examination, and affective and cognitive measures (Part B only), were summarized for all subjects who received study drug.

[4] = Phase 1 MAD study: safety assessments; format: in vivo, human
Method: In Part B, healthy young subjects in each cohort received the same dose once daily for 14 days after overnight fasting. Cohort dosing started at 280 mg, followed by 560 mg and 840 mg in subsequent cohorts. In each cohort, eight subjects received drug and two received placebo. A fourth cohort of healthy elderly subjects (≥65 years old) received a 560 mg dose vs. placebo daily for 14 days (seven active, two placebo).
Subjects were dosed in the morning with 240 mL of water after an 8-hour fast, and remained in a semi-reclined position for 1 hour and fasting for 2 hours post-administration, except for the fed cohort in Part A. Subjects in each MAD cohort were confined to the clinical facility from check-in on Day 0 until the pharmacokinetic sample was collected on Day 16, 48 hours after administration of the last dose on Day 14. Subjects returned to the clinical facility for follow-up visits on Days 24 and 35.
as §1

[5] = MAD, age ≤ 64 years, 280 mg (n = 8)
[6] = MAD, age ≤ 64 years, 560 mg (n = 8)
[7] = MAD, age ≤ 64 years, 840 mg (n = 8)
[8] = MAD, age ≥ 65 years, 560 mg (n = 7)

CC(C)(C)Oc1cc(CCC(C)(C)N2Cc3ccc(S(C)(=O)=O)cc3C2)ccc1O [CT1812]
full length neurogranin protein expression in neurons [1]: restores neurogranin expression
blood-brain barrier penetration [2]: penetrates the blood-brain barrier
ECG ([3]; SAD): No ECG parameters or changes were assessed as clinically significant
clinical laboratory results ([3]; SAD): no subjects with clinically significant laboratory results
Number of Subjects with Treatment-Emergent AE: All TEAEs ([3]; SAD Total Active (n = 42)): 18
Number of Subjects with Treatment-Emergent AE: Headache ([3]; SAD Total Active (n = 42)): 6
Number of Subjects with Treatment-Emergent AE: Nausea ([3]; SAD Total Active (n = 42)): 6
Number of Subjects with Treatment-Emergent AE: All TEAEs ([3]; SAD fasted 10 mg (n = 6)): 2
Number of Subjects with Treatment-Emergent AE: All TEAEs ([3]; SAD fasted 30 mg (n = 6)): 4
Number of Subjects with Treatment-Emergent AE: Headache ([3]; SAD fasted 30 mg (n = 6)): 3
Number of Subjects with Treatment-Emergent AE: Nausea ([3]; SAD fasted 30 mg (n = 6)): 1
Number of Subjects with Treatment-Emergent AE: All TEAEs ([3]; SAD fasted 180 mg (n = 6)): 2
Number of Subjects with Treatment-Emergent AE: All TEAEs ([3]; SAD fasted 450 mg (n = 6)): 4
Number of Subjects with Treatment-Emergent AE: Headache ([3]; SAD fasted 450 mg (n = 6)): 1
Number of Subjects with Treatment-Emergent AE: Nausea ([3]; SAD fasted 450 mg (n = 6)): 2
Number of Subjects with Treatment-Emergent AE: All TEAEs ([3]; SAD fasted 1120 mg (n = 6)): 4
Number of Subjects with Treatment-Emergent AE: Headache ([3]; SAD fasted 1120 mg (n = 6)): 1
Number of Subjects with Treatment-Emergent AE: Nausea ([3]; SAD fasted 1120 mg (n = 6)): 3
Number of Subjects with Treatment-Emergent AE: All TEAEs ([3]; SAD fed 90 mg (n = 6)): 2
Number of Subjects with Treatment-Emergent AE: Headache ([3]; SAD fed 90 mg (n = 6)): 1
deaths or serious adverse events ([3]; SAD, 10 mg to 1120 mg): no deaths or other serious adverse events
tolerability ([3]; single dose 10 mg to 1120 mg, healthy subjects): well tolerated
tolerability ([4]; 280 mg to 840 mg QD for 14 days, healthy subjects): well tolerated
ECG ([4]; MAD): No ECG parameters or changes were assessed as clinically significant
Number of Subjects with TEAE: Back pain ([4]; MAD Total Active (n = 31)): 2
Number of Subjects with TEAE: Catheter site phlebitis ([4]; MAD Total Active (n = 31)): 2
Number of Subjects with TEAE: Dizziness ([4]; MAD Total Active (n = 31)): 3
Number of Subjects with TEAE: Dyspepsia ([4]; MAD Total Active (n = 31)): 3
Number of Subjects with TEAE: Headache ([4]; MAD Total Active (n = 31)): 10
Number of Subjects with TEAE: Nausea ([4]; MAD Total Active (n = 31)): 2
Number of Subjects with TEAE: Procedural pain ([4]; MAD Total Active (n = 31)): 6
Number of Subjects with TEAE: Upper respiratory tract infection ([4]; MAD Total Active (n = 31)): 8
Number of Subjects with TEAE: Vomiting ([4]; MAD Total Active (n = 31)): 2
Number of Subjects with at least one Treatment-Emergent AE: All TEAES ([4]; MAD Total Active (n = 31)): 25
Number of Subjects with TEAE: Dizziness [4, 5]: 1
Number of Subjects with TEAE: Dyspepsia [4, 5]: 1
Number of Subjects with TEAE: Headache [4, 5]: 2
Number of Subjects with TEAE: Nausea [4, 5]: 1
Number of Subjects with TEAE: Upper respiratory tract infection [4, 5]: 5
Number of Subjects with at least one Treatment-Emergent AE: All TEAES [4, 5]: 7
Number of Subjects with TEAE: Catheter site phlebitis [4, 6]: 1
Number of Subjects with TEAE: Dyspepsia [4, 6]: 1
Number of Subjects with TEAE: Headache [4, 6]: 1
Number of Subjects with TEAE: Procedural pain [4, 6]: 4
Number of Subjects with TEAE: Upper respiratory tract infection [4, 6]: 1
Number of Subjects with at least one Treatment-Emergent AE: All TEAES [4, 6]: 7
Number of Subjects with TEAE: Back pain [4, 7]: 1
Number of Subjects with TEAE: Catheter site phlebitis [4, 7]: 1
Number of Subjects with TEAE: Dizziness [4, 7]: 1
Number of Subjects with TEAE: Dyspepsia [4, 7]: 1
Number of Subjects with TEAE: Headache [4, 7]: 4
Number of Subjects with TEAE: Nausea [4, 7]: 1
Number of Subjects with TEAE: Procedural pain [4, 7]: 2
Number of Subjects with TEAE: Upper respiratory tract infection [4, 7]: 2
Number of Subjects with TEAE: Vomiting [4, 7]: 2
Number of Subjects with at least one Treatment-Emergent AE: All TEAES [4, 7]: 6
Number of Subjects with TEAE: Back pain [4, 8]: 1
Number of Subjects with TEAE: Dizziness [4, 8]: 1
Number of Subjects with TEAE: Headache [4, 8]: 3
Number of Subjects with at least one Treatment-Emergent AE: All TEAES [4, 8]: 5
serious AE (SAE) ([4]; MAD, subject on 840 mg, respiratory picornavirus infection deemed unrelated to study treatment): One
subjects developing a rash ([4]; MAD, improvement after discontinuing CT1812): One
subjects with increase in liver function tests below 3× the upper limit of normal ([4]; MAD, including one subject on placebo): Four
